Measurements taken from patent US9605002B2, “5,5-heteroaromatic anti-infective compounds” (priority 2012, dated 2017).
Values after ≈ are worked out from the molar mass of the structure shown. Values joined by “and” are separate entries in the source; they are usually repeats but may differ in a detail not shown here. Identical values can stand only once.

Tests used:
[1] = system: M. tuberculosis (Mtb) H37Rv; experiment: Microplate Alamar Blue Assay (MABA), GAS media, replicating Mtb; type: cell-based, Mycobacterium tuberculosis; conditions: for MIC90: Mycobacterium tuberculosis, GAS (glycerol-alanine-salt) media, replicating H37Rv, read-out: GAS media: replicating H37Rv Mtb: MIC 90
[2] = system: VERO kidney epithelial cells; experiment: VERO toxicity assessment; conditions: for IC50: Chlorocebus sabaeus, Vero, read-out: VERO: IC50
[3] = system: M. tuberculosis (Mtb) H37Rv; experiment: Microplate Alamar Blue Assay (MABA), 7H12 media, replicating Mtb; type: cell-based; conditions: Mycobacterium tuberculosis, 7H12 media (no glycerol), read-out: 7H12 media: Replicating H37Rv Mtb: MIC 90
[4] = system: Drug sensitive Mtb clinical strain #2; experiment: MIC against clinical Mtb strains; type: cell-based; conditions: Mycobacterium tuberculosis, 7H9/glucose/glycerol/BSA/0.05% Tween 80, average of three
[5] = system: Drug sensitive Mtb clinical strain #1; experiment: MIC against clinical Mtb strains; type: cell-based; conditions: Mycobacterium tuberculosis, 7H9/glucose/glycerol/BSA/0.05% Tween 80, average of three

Row | SMILES | MIC90 [1] [µM] | IC50 [2] [µM] | MIC90 [3] [µM] | MIC90 [4] | MIC90 [5] | in vitro activity against H37Rv TB ([1]; statement in words, medium not stated) | therapeutic window ([2]; statement in words)
1 | COc1cc(CNC(=O)c2c(C)nc3sc(C)cn23)ccn1 [ND-020017] | < 2 | < 32 | 2 to 10 (≈ 0.633 to 3.16 µg/mL) |  |  |  | 
2 | CCc1nc2sc(Cl)cn2c1C(=O)NCc1ccc(C(F)(F)F)cc1 [ND-020011] | < 2 | < 32 | 2 to 10 (≈ 0.776 to 3.88 µg/mL) |  |  |  | 
3 | Cc1cn2c(C(=O)NCc3ccc4c(ccn4C)c3)c(C)nc2s1 [ND-020079] | < 2 | < 32 | < 2 |  |  |  | 
4 | Cc1nc2sc(Cl)cn2c1C(=O)NCc1ccc(N2CCOCC2)c(F)c1 [ND-020039] | < 2 | < 32 | < 2 |  |  |  | 
5 | CCc1nc2sc(C)cn2c1C(=O)NCc1ccc(N2CCOCC2)c(F)c1 [ND-020037] | < 2 | < 32 | 2 to 10 (≈ 0.805 to 4.02 µg/mL) |  |  |  | 
6 | Cc1cn2c(C(=O)NCc3ccc(N(C)C)cc3)c(C)nc2s1 [ND-020020] | < 2 | < 32 | < 2 |  |  |  | 
7 | O=[N+]([O-])c1cn2c(n1)OC[C@@H](OCc1ccc(OC(F)(F)F)cc1)C2 [PA-824, reference compound] |  |  |  | > 13.9 µM and > 5 µg/mL | 0.45 µM to 0.86 µM and 0.16 µg/mL to 0.31 µg/mL |  | 
8 | Cc1nc2sc(C(F)(F)F)cn2c1C(=O)NCc1ccc(N(C)C)cc1 [ND-020024] | < 2 | < 32 | 2 to 10 (≈ 0.765 to 3.82 µg/mL) |  |  |  | 
9 | CNc1ccc(CNC(=O)c2c(C)nc3sc(C)cn23)cc1 [ND-020021] | < 2 | < 32 | < 2 |  |  |  | 
10 | Cc1nc2sc(C(F)(F)F)cn2c1C(=O)NCc1ccc2c(c1)OCC2 [ND-020063] | < 2 | < 32 | 2 to 10 (≈ 0.763 to 3.81 µg/mL) |  |  |  | 
11 | Cc1cn2c(C(=O)NCc3ccc4ocnc4c3)c(C)nc2s1 [ND-020049] | < 2 | < 32 | < 2 |  |  |  | 
12 | Cc1cn2c(C(=O)NCc3cccc(N(C)C)c3)c(C)nc2s1 [ND-020019] | < 2 | < 32 | < 2 |  |  |  | 
13 | Cc1cn2c(C(=O)Nc3ccc(Oc4ccc(C(F)(F)F)cc4)cc3)c(C)nc2s1 [ND-020040] | < 2 | < 32 | < 2 |  |  |  | 
14 | Cc1cn2c(C(=O)NCc3ccc(N4CCC(=O)CC4)cc3)c(C)nc2s1 [ND-020070] | < 2 | 20 to 32 | 2 to 10 (≈ 0.765 to 3.82 µg/mL) |  |  |  | 
15 | Cc1nc2sc(Cl)cn2c1C(=O)Nc1ccc(Oc2ccc(C(F)(F)F)cc2)cc1 [ND-020041] | < 2 | < 32 | < 2 |  |  |  | 
16 | Cc1cn2c(C(=O)NCc3ccc(-n4cccn4)cc3)c(C)nc2s1 [ND-020064] | < 2 | 20 to 32 | < 2 |  |  |  | 
17 | Cc1cn2c(C(=O)NCc3ccc(Oc4ccc(F)cc4)cc3)c(C)nc2s1 [ND-010081] | < 2 | 2 to 10 | < 2 | < 0.025 µg/mL and < 0.01 µM | < 0.01 µM and < 0.025 µg/mL | comparable to the current clinical candidates | sufficient therapeutic window for in vivo treatment
18 | CCc1nc2sc(C)cn2c1C(=O)O [ND-009745] | < 32 | < 32 | < 32 |  |  |  | 
19 | COc1cccc(CNC(=O)c2c(C)nc3sc(C)cn23)c1 [ND-009763] | < 2 | < 32 | < 2 |  |  |  | 
20 | Cc1cn2c(C(=O)NCc3cccc(N4CCC(=O)CC4)c3)c(C)nc2s1 [ND-020072] | < 2 | < 32 | < 2 |  |  |  | 
21 | Cc1cn2c(C(=O)NCc3ccc(N4CCOCC4)c(F)c3)c(C)nc2s1 [ND-020034] | < 2 | < 32 | 2 to 10 (≈ 0.777 to 3.88 µg/mL) |  |  |  | 
22 | Cc1cn2c(C(=O)NCc3ccc(F)c(N4CCOCC4)c3)c(C)nc2s1 [ND-020076] | < 2 | < 32 | < 2 |  |  |  | 
23 | Cc1cn2c(C(=O)NCc3cccc(OC(F)(F)F)c3)c(C)nc2s1 [ND-020007] | < 2 | < 32 | < 2 |  |  |  | 
24 | Cc1cn2c(C(=O)NCc3cc(F)ccc3F)c(C)nc2s1 [ND-020002] | < 2 | < 32 | < 2 |  |  |  | 
25 | CCc1nc2sc(Cl)cn2c1C(=O)NCc1ccc(N(C)C)cc1 [ND-020023] | < 2 | < 32 | < 2 |  |  |  | 
26 | CCOc1ccc(CNC(=O)c2c(C)nc3sc(C)cn23)cc1 [ND-020028] | < 2 | < 32 | < 2 |  |  |  | 
27 | CCc1nc2sc(C)cn2c1C(=O)NCc1ccc2nc(-c3ccc(F)cc3)oc2c1 [ND-020067] | < 2 | 20 to 32 | 2 to 10 (≈ 0.869 to 4.34 µg/mL) |  |  |  | 
28 | COc1ccc(CNC(=O)c2c(C)nc3sc(C)cn23)cc1 [ND-020027] | < 2 | < 32 | < 2 |  |  |  | 
29 | Cc1cn2c(C(=O)NCc3ccc(N4CCOCC4)cc3)c(C)nc2s1 [ND-020033] | < 2 | 20 to 32 | 2 to 10 (≈ 0.741 to 3.7 µg/mL) |  |  |  | 
